Publication PMC9606955, “In Vitro Activity of Essential Oils Distilled from Colombian Plants against Candida auris and Other Candida Species with Different Antifungal Susceptibility Profiles” (Molecules, 2022)

Test system: C. auris
Assay: Screening of antifungal activity at 256 µg/mL against C. auris
Type: cell-based, Candida auris
Settings: screening at 256 µg/mL, clinical isolates of C. auris
Description: The fungal strains used in this study were C. albicans ATCC 10231, C. albicans ATCC 64550, C. parapsilosis ATCC 22019, C. tropicalis ATCC 750, C. tropicalis ATCC 200956 (resistant to azoles and AMB), C. glabrata LMDM 34 (resistant to echinocandins), C. metapsilosis MUM 15.12, C. orthopsilosis MUM 17.13, C. lusitaniae MUM 17.08, C. krusei ATCC 6258 (Issatchenkia orientalis ATCC 6258), and C. auris CDC B11903. Additionally, nine clinical isolates were included: C. parapsilosis Synlab 406 (FLC-resistant) and eight C. auris isolates identified by MALDI-TOF MS (Bruker Daltonics, Bremen, Germany) according to Zhao et al.. These yeasts were cultured on Sabouraud Dextrose Agar (SDA; Sigma-Aldrich, St. Louis, MO, USA) for 24 h at 35 °C.
Antifungal susceptibility testing was performed according to Clinical and Laboratory Standards Institute M27, 4th Edition (CLSI standard M27, 4th Edition). Some modifications were applied for evaluation of the antifungal activity of EOs and terpenes. Initially, a screening was carried out to determine the antifungal activity of the EOs and of commercial terpenes. Stock concentrations of EOs and terpenes were prepared at 512 µg/mL and an inoculum of 2.5 × 10^3 CFU/mL of each yeast was prepared in RPMI 1640-MOPS (Sigma- Aldrich St. Louis, MO, USA). Thereafter, 100 µL of each stock solution of EOs or terpenes was dispensed in 96-well microdilution plates (Corning®, Costar®, NY, USA) and 100 µL of each yeast inoculum was added. […] MICs were visually determined at the lowest concentration that produced visual inhibition compared to the growth control. […] The results were expressed as geometric means (GM) and ranges. As an antifungal susceptibility testing control, the activity of ITC and AMB against the reference strains C. krusei ATCC 6258 and C. parapsilosis ATCC 22019 was evaluated in all experiments following the CLSI standard M27, 4th Edition. […]

Compound	antifungal activity in screening against C. auris
C=C(C)C1CC=C(C)C(O)C1 (mixture of isomers) [carveol]	active against only some of the clinical isolates of C. auris
C=C1CC/C=C(\C)CC[C@@H]2[C@@H]1CC2(C)C (relative stereo) [trans-β-caryophyllene]	active against only some of the clinical isolates of C. auris
